Measurements: US4902720A (priority 1988, dated 1990)
Where two headings read alike, the source gives them in different places.

Columns and labels:
HSV-1 (McKrae strain) [1] = conditions: for No. of Plaques: virus controls 270, 270, 252
Procedure: All cultures were incubated at 37° C. in a 5% CO2 humidified atmosphere. The cultures were stained with crystal violet to aid in counting the plaque.

HSV-1 [2] = conditions: 20 mg/ml TEAC, virus control 1398
HSV-1 and HSV-2 = type: cell-based
HSV-1 (F strain) [3] = conditions: 2.5 mg/ml TEAC
RK-13 cells = conditions: 25 mg/ml, 48 hours, 37° C.
Procedure: (§1) Healthy confluent monolayer cell cultures were overlaid with 1 ml of the drug and incubated for 48 hours at 37° C. and then stained. Cell cultures with maintenance media were used as controls.

Vero cells = conditions: 25 mg/ml, 48 hours, 37° C.
Procedure: as §1

[4] = tested on: Flow 1000 cells (foreskin cells); conditions: 25 mg/ml, 48 hours, 37° C.
Procedure: as §1

HSV-1 (F strain) [5] = conditions: for % plaque inhibition: drug added after inoculation; for appearance of cell layer / % plaque inhibition A: Exp. 1D; for appearance of cell layer: after virus adsorption, thin = attached but monolayer not confluent; for % plaque inhibition A: drug added after virus adsorption
HSV-1 [6] = assay: microbe, parasite or virus in culture; conditions: read-out: % Reduction
HSV-1 (McKrae strain) [7] = conditions: 20 mg/ml
Procedure: In experiment 1K, cultures were infected with the McKrae strain of HSV-1 at a high multiplicity of infection. […] At designated times, the cultures were harvested. The supernatant fluid and the cells were kept separate to assay for viruses released in the supernatant fluid and also that present in the cells. Both supernatant fluid and the cells were frozen immediately at -85° C. These samples were then assayed for infectious particles on susceptible cells.

CC[N+](CC)(CC)CC.[Cl-] [TEAC, tetraethylammonium chloride]
appearance of cell layers (vaccinia): thin
plaque (vaccinia): did not have any plaque
change in the morphology of the cells (Vero and WISH cells; 5 mg, 2.5 mg and 1.25 mg TEAC per culture, overnight): No change in the morphology of the cells
growth or general appearance vs untreated controls (Vero and WISH cells; after wash, additional 24 hours in fresh medium): no apparent difference in the growth or general appearance
No. of Plaques (HSV-1 (McKrae strain) [1]; 3.125 mg/ml): 247
No. of Plaques (HSV-1 (McKrae strain) [1]; 6.250 mg/ml): 286
No. of Plaques (HSV-1 (McKrae strain) [1]; 12.500 mg/ml): 300
appearance of monolayer (HSV-1 (McKrae strain) [1]; 25 mg/ml): thinned out appearance
No. of Plaques (HSV-1 (McKrae strain) [1]; 25.000 mg/ml): 0
effectiveness in plaque inhibition (HSV-1 (McKrae strain) [1]; concentrations below 25 mg/ml): not significantly effective in achieving plaque inhibition
PFU/ml (HSV-1 [2]; removed 4 hours P.I.): 1042 PFU/ml
PFU/ml (HSV-1 [2]; removed 6 hours P.I.): 596 PFU/ml
PFU/ml (HSV-1 [2]; removed 8 hours P.I.): 436 PFU/ml
PFU/ml (HSV-1 [2]; removed 10 hours P.I.): 163 PFU/ml
permissiveness of cells to virus (HSV-1 and HSV-2; TEAC added before viral inoculation, time and dosage dependent): rendered the cells non-permissive to the virus and no plaque formed
in vitro replication of HSV-1 and HSV-2 (HSV-1 and HSV-2; summary): inhibited the in vitro replication of HSV-1 and HSV-2
plaque number and size (HSV-1 and HSV-2; summary): not only by the reduced number of plaque, but also by their reduced size
size of the plaque vs control (HSV-1 (F strain) [3]): appreciably smaller
average number of plaque (HSV-1 (F strain) [3]; 1 ml + 4 ml media, after adsorption, control 488.5): 75.5 plaque
crusting (HSV type 1; Patient L, 2.9 cc (5.5 mg/kg), 7th day after treatment): the crusting had all disappeared
time to clearing of lesions (HSV type 1; Patient M, 1% TEAC in hydrophillic ointment base, topical, five days later): cleared in a shorter time period than usual
lesion (HSV type 1; Patient M, ointment resumed two months later, after three days): the lesion had not spread and had now crusted
toxicity (RK-13 cells): toxicity
toxicity (Vero cells): slight toxicity
toxicity [4]: toxicity
antiviral activity (HSV-1 (F strain) [5]; Exp. 1C, all dilutions tested): Antiviral activity was seen in all dilutions tested
% plaque inhibition (HSV-1 (F strain) [5]; Exp. 1C, 0.62 mg/culture): 30%
% plaque inhibition (HSV-1 (F strain) [5]; Exp. 1C, 1.25 mg/culture): 39%
% plaque inhibition (HSV-1 (F strain) [5]; Exp. 1C, 2.50 mg/culture): 46%
% plaque inhibition (HSV-1 (F strain) [5]; Exp. 1C, 5.00 mg/culture): 45%
% plaque inhibition (HSV-1 (F strain) [5]; Exp. 1C, 10.00 mg/culture): 56%
appearance of cell layer (HSV-1 (F strain) [5]; 25 mg/culture): thin
appearance of cell layer (HSV-1 (F strain) [5]; 50 mg/culture): thin
% plaque inhibition A (HSV-1 (F strain) [5]; 6.2 mg/culture): 20%
% plaque inhibition A (HSV-1 (F strain) [5]; 12.5 mg/culture): 62%
% plaque inhibition A (HSV-1 (F strain) [5]; 25.0 mg/culture, cell layer thin): 100%
% plaque inhibition A (HSV-1 (F strain) [5]; 50.0 mg/culture, cell layer thin): 100%
inhibition at 20000 µg/mL (HSV-1 [6]; Human alphaherpesvirus 1, 4 h): 25%
inhibition at 20000 µg/mL (HSV-1 [6]; Human alphaherpesvirus 1, 6 h): 57%
inhibition at 20000 µg/mL (HSV-1 [6]; Human alphaherpesvirus 1, 8 h): 69%
inhibition at 20000 µg/mL (HSV-1 [6]; Human alphaherpesvirus 1, 10 h): 88%
virus yield, supernatant (HSV-1 (McKrae strain) [7]; 6 hours P.I., dilution 10^-1, control 3): 0 PFU/m
virus yield, cell (HSV-1 (McKrae strain) [7]; 6 hours P.I., dilution 10^-1, control 7): 2 PFU/m
virus yield, supernatant (HSV-1 (McKrae strain) [7]; 6 hours P.I., dilution 10^-2, control 1): 0 PFU/m
virus yield, cell (HSV-1 (McKrae strain) [7]; 6 hours P.I., dilution 10^-2, control 7): 5 PFU/m
virus yield, supernatant (HSV-1 (McKrae strain) [7]; 6 hours P.I., dilution 10^-3, control 0): 0 PFU/m
virus yield, cell (HSV-1 (McKrae strain) [7]; 6 hours P.I., undiluted (Und.), control 16): 12 PFU/m
virus yield, cell (HSV-1 (McKrae strain) [7]; 10 hours P.I., dilution 10^-1, control 12): 3 PFU/m
virus yield, supernatant (HSV-1 (McKrae strain) [7]; 10 hours P.I., dilution 10^-1, control 22): 0 PFU/m
virus yield, cell (HSV-1 (McKrae strain) [7]; 10 hours P.I., dilution 10^-2, control 2): 0 PFU/m
virus yield, supernatant (HSV-1 (McKrae strain) [7]; 10 hours P.I., dilution 10^-2, control 7): 0 PFU/m
virus yield, supernatant (HSV-1 (McKrae strain) [7]; 10 hours P.I., dilution 10^-3, control 0): 0 PFU/m
virus yield, cell (HSV-1 (McKrae strain) [7]; 10 hours P.I., undiluted (Und.), control 48): 13 PFU/m
virus yield, supernatant (HSV-1 (McKrae strain) [7]; 20 hours P.I., dilution 10^-1, control 91): 0 PFU/m
virus yield, cell (HSV-1 (McKrae strain) [7]; 20 hours P.I., dilution 10^-1, control W.O. (wiped out)): 5 PFU/m
